# Data taken from patent US20090019923A1, “Method for measuring octanol-water distribution coefficients of surfactants” (Clariant International Ltd., priority 2007, published 2009).
# Where “and” joins values, the source holds several entries; their conditions need not be identical. Equal entries are not always repeated.
# Experiment: octanol-water distribution coefficient by slow stirring, evaporation/re-dissolution and surface tension vs. concentration calibration curve
# Settings: for conc. Caq (concentration in the aqueous layer): after equilibration with octanol, initial 1 g/L; for logP: initial 1 g/L in aqueous layer, residue in 0.2 M KCl, single samples of replicates A, B
# Description: Aqueous surfactant solution is equilibrated with octanol. The concentration of surfactant in the aqueous phase after equilibration is determined from the surface tension using a calibration curve. Interference from octanol is prevented by first removing it by evaporation and re-dissolution. The concentration of surfactant in the octanol layer is calculated from the change in concentration in the aqueous layer. Alternatively an aliquot of the octanol layer can be evaporated and re-dissolved in water to determine the concentration directly via surface tension.
# Preferably, equal or approximately equal volumes of water and octanol are used. The preferred method is stirring slowly for several hours. The minimum stirring time required will depend on the system and can, if necessary, be determined by running experiments with different stirring times. […] The stirring speed must be kept low enough for there to be two distinct phases during the whole course of the experiment. Other types of agitation (e.g. shaking, rolling, vibration) may also be used, provided they are gentle enough to avoid any mixing of the phases.
# Evaporating an aliquot of the aqueous phase and re-dissolving the residue in water or electrolyte solution. This removes octanol, which is surface active and would therefore interefere with the subsequent concentration determination via surface tension. It is covenient to take an aliquot of between 1 and 10 mL and re-dissolve in a larger volume of water (20-500 mL).
# The surface tension may be measured by any convenient method, for example, the plate, ring or bubble pressure methods. Preferably a method should be used which allows an equilibration time of several minutes e.g. the plate method.
# The calibration curve is obtained by measuring the surface tension of the surfactant at various concentrations. Exactly the same procedure should be used as for the re-dissolved residue solution. If an electrolyte solution is used in the dilution step, it must also be used for the calibration curve.
# P=Vaq(c0−caq)/(Voctcaq) (2)
# P=Vaq(c0−caq)/(Voctcnon-micellised) (3) • For cmc<caq cnon-micellised=cmc • For cmc≧caq cnon-micellised=caq
# Equilibration experiment: 100 mL of a 1 g/L aqueous solution of the surfactant and 100 mL octanol were placed in a conical flask. The two-phase system was stirred for eight hours on a magnetic stirrer. The stirring speed (100 rpm) was low enough for there to be two distinct layers. After the stirrer was switched off, the system was allowed to stand overnight. Then a 2 mL sample of the aqueous phase was placed in a tensiometer glass and evaporated to dryness in a drying cabinet. The residue was redissolved in 50 mL of 0.2 M KCl. The surface tension of this solution was measured with the Pt plate method. The solution was then diluted five times with 0.2 M KCl and the surface tension measured again. The concentration of surfactant was determined by comparison with a calibration curve. A duplicate experiment was run to check the reproducibility.
# Equilibration experiment: 100 mL of a 1 g/L aqueous solution of the surfactant and 100 mL octanol were placed in a conical flask. The two-phase system was stirred for eight hours on a magnetic stirrer. The stirring speed (100 rpm) was low enough for there to be two distinct layers. After the stirrer was switched off, the system was allowed to stand overnight. Then a 2 mL sample of the aqueous phase was placed in a tensiometer glass evaporated to dryness in a drying cabinet. The residue was redissolved in 50 mL of 0.2 M KCl. The surface tension of this solution was measured with the Pt plate method. The concentration of surfactant was determined by comparison with a calibration curve.
conc. Caq (concentration in the aqueous layer) (dilution factor 25),conc. Caq (concentration in the aqueous layer) (dilution factor 125),"logP (100 mL water/100 mL octanol, stirred 8 h, dilution factor 25)","logP (100 mL water/100 mL octanol, stirred 8 h, dilution factor 125)","logP mean (initial concentration in the aqueous layer 1 g/L, mean of all samples and dilutions)",Substance,"Non-micellised surfactant cnon-micellised (aqueous layer at equilibrium, cmc greater than caq)","Equilibrium concentration in aqueous layer, caq (original concentration 1 g/L, 100 mL water/100 mL octanol, stirred 8 h)","Concentation in octanol layer, c0-caq (original concentration 1 g/L, from mass balance)"
,,,,,C10-C13 linear alkylbenzene sulfonate,0.16 g/L,0.16 g/L,840 µg/mL
550 µg/mL and 630 µg/mL and 600 µg/mL,570 µg/mL and 590 µg/mL and 630 µg/mL,−0.09 and −0.22 and −0.18,−0.12 and −0.15 and −0.22,−0.17,C22-amidoamine betaine,,,
